Experimental data published in paper PMC10079235 (PLOS Neglected Tropical Diseases, 2023).
Structures can show the parent of a compound that is named as a salt. Where two headings read alike, the source gives them in different places.

Key:
HCT-8/NC cells = conditions: human, 41 h
HCT-8/WT cells = experiment: MTS cytotoxicity (drug tolerance) assay; conditions: WT cells, no drug selection; MTS assay
Description: (§1) Host cell drug tolerance to specified inhibitors was evaluated by 3-(4,5-dimethylthiazol-2-yl)-5-(3-carboxymethoxyphenyl)-2-(4-sulfophenyl)-2H-tetrazolium (MTS) assay. WT and transgenic host cells were seeded in 96-well plates (10,000 cells/well) and cultured for 24 h, followed by the addition of specified compounds at serially diluted concentrations and continued culture for 41 h. After 3 washes with serum-free medium, MTS solution (Saint-Bio, Shanghai, China) was added into the plates (20 μL/well) and incubated at 37°C for 2 h. Optical density at 490 nm (OD490) was measured using a Synergy LX multi-mode reader (BioTek, Winooski, VT). Drug tolerance was indicated by half-maximal cytotoxic concentrations (TC50 values) calculated by nonlinear regression using 4PL model. Selectivity index (SI) for each compound was determined by the ratio between TC50 and EC50 values (SI = TC50/EC50).

HCT-8/MDR1 cells = experiment: MTS cytotoxicity (drug tolerance) assay; conditions: for TC50: MDR1 cells, no drug selection, MTS assay
HCT-8/NC(PTX) cells = experiment: MTS cytotoxicity (drug tolerance) assay; conditions: for TC50: human, 41 h
Description: as §1
(§2) Surviving cells were allowed to recover in drug-free medium for 3–5 d to near confluence (round 1). The selection/recovery cycle were repeated once (round 2). […] The resulting cell lines after PTX or NTZ selection were designated as WT(PTX), NC(PTX) and MDR1(PTX), or WT(NTZ), NC(NTZ) and MDR1(NTZ), respectively (Tables 1 and S2).

HCT-8/WT(PTX) cells = experiment: MTS cytotoxicity (drug tolerance) assay; conditions: for TC50: human, 41 h
Description: as §1, §2

HCT-8/MDR1(NTZ) cells = experiment: MTS cytotoxicity (drug tolerance) assay; conditions: for TC50: MDR1(NTZ) cells
Description: as §1, §2

HCT-8/NC(NTZ) cells = experiment: MTS cytotoxicity (drug tolerance) assay; conditions: for TC50: human, 41 h
Description: as §1
(§3) Surviving cells were allowed to recover in drug-free medium for 3–5 d to near confluence (round 1). The selection/recovery cycle were repeated once (round 2). […] Finally, all cells were cultured at the final selection concentrations of PTX or NTZ for ≥7 d, followed by culture in drug-free medium for 14 d. At this time point, cells were used for cytotoxicity and efficacy assays or cryopreserved in a liquid nitrogen tank. The resulting cell lines after PTX or NTZ selection were designated as WT(PTX), NC(PTX) and MDR1(PTX), or WT(NTZ), NC(NTZ) and MDR1(NTZ), respectively (Tables 1 and S2).

HCT-8/WT(NTZ) cells = experiment: MTS cytotoxicity (drug tolerance) assay; conditions: for TC50: human, 41 h
Description: as §1, §3

HCT-8/MDR1(PTX) cells = test system: HCT-8/MDR1(PTX) cells
Description: as §1, §2

Cryptosporidium parvum = experiment: Anti-cryptosporidial efficacy assay (44-h infection/qRT-PCR); conditions: for EC50: Cryptosporidium parvum; for On-target (Eon) rate at EC50: Eq 2; for Eoff, proportion of off-parasite-target effect / Eon, proportion of on-parasite-target effect: MDR1(PTX) vs. NC model, Eq 3 and 4

COc1cccc2c1C(=O)c1c(O)c3c(c(O)c1C2=O)C[C@@](O)(C(C)=O)C[C@@H]3O[C@H]1C[C@H](N)[C@H](O)[C@H](C)O1 [Daunorubicin, Daunorubicin HCl] was tested, and the TC50 (HCT-8/NC cells) was 4.16 µM, the TC50 (HCT-8/WT cells) was 3.91 µM and the TC50 (HCT-8/MDR1 cells) was 3.95 µM. The “Fold change of TC50 MDR1/NC” value (HCT-8/MDR1 cells; ratio of TC50, MDR1 vs NC cells) was 0.95, the “Fold change of TC50 NC(PTX) vs. NC” value (HCT-8/NC(PTX) cells) was 0.97 and the TC50 (HCT-8/NC(PTX) cells) was 4.05 µM. For the same compound, the “Fold change of TC50 WT(PTX) vs. WT” value (HCT-8/WT(PTX) cells) was 0.99, the TC50 (HCT-8/WT(PTX) cells) was 3.88 µM and the TC50 (HCT-8/MDR1(NTZ) cells; after selection by NTZ) was 3.93 µM. The “Fold increase of TC50 MDR1(NTZ) vs. NC” value (HCT-8/MDR1(NTZ) cells; after selection by NTZ) was 0.94, the “Fold increase of TC50 MDR1(NTZ) vs. MDR1” value (HCT-8/MDR1(NTZ) cells; after selection by NTZ vs parent cell line) was 0.99 and the “Fold increase of TC50 NC(NTZ) vs. NC” value (HCT-8/NC(NTZ) cells) was 0.93. The TC50 (HCT-8/NC(NTZ) cells) was 3.85 µM, the “Fold increase of TC50 WT(NTZ) vs. WT” value (HCT-8/WT(NTZ) cells) was 1.05 and the TC50 (HCT-8/WT(NTZ) cells) was 4.09 µM. For the same compound, the TC50 (HCT-8/MDR1(PTX) cells; MDR1(PTX) cells, after selection by PTX) was 10.23 µM, the “Fold change of TC50 MDR1(PTX) vs. NC” value (HCT-8/MDR1(PTX) cells; after selection by PTX) was 2.46 and the “Fold change of TC50 MDR1(PTX) vs. MDR1” value (HCT-8/MDR1(PTX) cells; after selection by PTX vs parent cell line) was 2.59. The “Fold change of TC50 MDR1(PTX)/NC(PTX)” value (HCT-8/MDR1(PTX) cells; ratio of TC50) was 2.53.

With COc1cccc2c1C(=O)c1c(O)c3c(c(O)c1C2=O)C[C@@](O)(C(=O)CO)C[C@@H]3O[C@H]1C[C@H](N)[C@H](O)[C@H](C)O1 [Doxorubicin, Doxorubicin HCl] the TC50 (HCT-8/NC cells) was 4.34 µM, the TC50 (HCT-8/WT cells) was 4.03 µM and the TC50 (HCT-8/MDR1 cells) was 6.67 µM. For the same compound, the EC50 (Cryptosporidium parvum; MDR1, read-out: Antiparasitic efficacy (EC50), C. parvum cultured in MDR1(PTX) host cells) was 1.95 µM, the EC50 (Cryptosporidium parvum; read-out: Antiparasitic efficacy (EC50), C. parvum cultured in NC host cells) was 1.19 µM and the EC50 (Cryptosporidium parvum; read-out: Antiparasitic efficacy (EC50), C. parvum cultured in WT host cells) was 1.18 µM. The “On-target (Eon) rate at EC50” value (Cryptosporidium parvum; MDR1(PTX) cell model) was 54.5%, the “On-target (Eon) rate at EC50” value (Cryptosporidium parvum; MDR1(PTX) cell model, listed as DXR) was 54.5% and the “Off-target (Eoff) rate at EC50” value (Cryptosporidium parvum; MDR1(PTX) cell model, from Pct changes of EC50 and TC50 (Eq 1)) was 45.5%. The “Action on parasite target (on-target) conclusion” value (Cryptosporidium parvum; MDR1-transgenic host cell model) was “partially on-target”, the “Eoff, proportion of off-parasite-target effect” value (from here on “Eoff, proportion”) (Cryptosporidium parvum; at EC10) was 26.90% and the “Eon, proportion of on-parasite-target effect” value (from here on “Eon, proportion”) (Cryptosporidium parvum; at EC10) was 73.10%. The “Eoff, proportion” value (Cryptosporidium parvum; at EC20) was 32.80%, the “Eon, proportion” value (Cryptosporidium parvum; at EC20) was 67.20% and the “Eoff, proportion” value (Cryptosporidium parvum; at EC30) was 37.30%. For the same compound, the “Eon, proportion” value (Cryptosporidium parvum; at EC30) was 62.70%, the “Eoff, proportion” value (Cryptosporidium parvum; at EC40) was 41.30% and the “Eon, proportion” value (Cryptosporidium parvum; at EC40) was 58.70%. The “Eoff, proportion” value (Cryptosporidium parvum; at EC50) was 45.3%, the “Eon, proportion” value (Cryptosporidium parvum; at EC50) was 54.7% and the “Eoff, proportion” value (Cryptosporidium parvum; at EC60) was 49.60%. The “Eon, proportion” value (Cryptosporidium parvum; at EC60) was 50.40%, the “Eoff, proportion” value (Cryptosporidium parvum; at EC80) was 61.40% and the “Eon, proportion” value (Cryptosporidium parvum; at EC80) was 38.60%. The “Eoff, proportion” value (Cryptosporidium parvum; at EC90) was 72.90%, the “Eon, proportion” value (Cryptosporidium parvum; at EC90) was 27.10% and the TC50 (HCT-8/NC(PTX) cells) was 4.15 µM. For the same compound, the TC50 (HCT-8/WT(PTX) cells) was 4.24 µM, the TC50 (HCT-8/MDR1(NTZ) cells; after selection by NTZ) was 6.90 µM and the TC50 (HCT-8/NC(NTZ) cells) was 4.21 µM. The TC50 (HCT-8/WT(NTZ) cells) was 4.18 µM and the “Pct change of TC50 (vs NC)” value (HCT-8/MDR1(PTX) cells; MDR1(PTX) vs NC cells) was 140.3%.
